Experimental data published in ChEMBL document CHEMBL4028801, “A multifactorial approach to hepatobiliary transporter assessment enables improved therapeutic compound development” (Toxicol Sci, 2013).
One block for each compound: values may come before it.

Columns and labels:
[1] = AUC in benign prostate hyperplasia patient at 5 mg, po QD after 24 hrs; type: ADME, organism-based; parameters: time < 24 hr, dose 5 mg, route oral; conditions: male, human, in vivo
[2] = target: T1, ATP-binding cassette sub-family C member 4 (Homo sapiens, UniProt O15439); experiment: Inhibition of human MRP4 overexpressed in Sf9 cell membrane vesicles assessed as uptake of [3H]-estradiol-17beta-D-glucuronide in presence of ATP and GSH measured after 20 mins by membrane vesicle transport assay; type: ADME, cell-based
T1 sequence (O15439 whole entry): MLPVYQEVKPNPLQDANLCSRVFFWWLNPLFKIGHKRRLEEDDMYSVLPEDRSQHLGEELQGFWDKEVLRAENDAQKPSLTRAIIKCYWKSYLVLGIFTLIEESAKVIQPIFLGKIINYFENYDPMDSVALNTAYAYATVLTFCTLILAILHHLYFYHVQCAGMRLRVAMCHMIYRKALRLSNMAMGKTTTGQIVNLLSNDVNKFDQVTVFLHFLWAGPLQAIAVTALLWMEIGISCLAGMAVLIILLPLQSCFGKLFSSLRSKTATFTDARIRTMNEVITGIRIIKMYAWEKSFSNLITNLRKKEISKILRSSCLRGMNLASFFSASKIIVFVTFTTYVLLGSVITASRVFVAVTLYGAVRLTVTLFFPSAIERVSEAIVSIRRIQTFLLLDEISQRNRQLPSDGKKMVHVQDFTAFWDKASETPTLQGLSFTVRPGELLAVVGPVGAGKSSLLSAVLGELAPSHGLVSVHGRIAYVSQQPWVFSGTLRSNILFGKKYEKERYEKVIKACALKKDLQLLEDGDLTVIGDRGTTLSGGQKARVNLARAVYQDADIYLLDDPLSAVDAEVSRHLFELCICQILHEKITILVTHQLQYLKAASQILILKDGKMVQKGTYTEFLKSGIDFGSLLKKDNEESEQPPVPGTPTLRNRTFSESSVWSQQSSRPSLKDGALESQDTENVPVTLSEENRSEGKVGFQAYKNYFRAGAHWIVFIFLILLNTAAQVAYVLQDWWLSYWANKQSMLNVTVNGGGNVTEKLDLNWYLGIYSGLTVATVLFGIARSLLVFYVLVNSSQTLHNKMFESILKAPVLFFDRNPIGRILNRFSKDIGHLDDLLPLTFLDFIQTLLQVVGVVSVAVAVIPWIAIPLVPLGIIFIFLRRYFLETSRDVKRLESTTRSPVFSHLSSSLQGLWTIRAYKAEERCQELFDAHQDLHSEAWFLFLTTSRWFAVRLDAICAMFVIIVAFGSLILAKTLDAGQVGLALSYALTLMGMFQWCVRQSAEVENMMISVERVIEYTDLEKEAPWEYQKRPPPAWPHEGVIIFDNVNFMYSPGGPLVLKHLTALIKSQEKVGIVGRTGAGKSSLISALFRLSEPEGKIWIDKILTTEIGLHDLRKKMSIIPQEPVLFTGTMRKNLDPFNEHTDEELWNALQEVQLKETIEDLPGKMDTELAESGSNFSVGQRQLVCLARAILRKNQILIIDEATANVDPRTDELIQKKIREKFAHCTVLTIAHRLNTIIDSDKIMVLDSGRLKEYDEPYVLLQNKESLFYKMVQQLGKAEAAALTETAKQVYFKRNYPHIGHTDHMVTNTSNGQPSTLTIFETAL

[3] = Ratio of drug concentration at steady state in human in benign prostate hyperplasia patient at 5 mg, po QD after 24 hrs to IC50 for human MRP4 overexpressed in Sf9 insect cells; type: ADME, organism-based; conditions: in vivo
[4] = AUC in alopecia patient at 1 mg, po QD after 24 hrs; type: ADME, organism-based; parameters: time < 24 hr, dose 1 mg, route oral; conditions: human, in vivo
[5] = Drug concentration at steady state in benign prostate hyperplasia patient at 5 mg, po QD after 24 hrs; type: ADME, organism-based; conditions: male, human, in vivo, read-out: Css
[6] = Drug concentration at steady state in alopecia patient at 1 mg, po QD after 24 hrs; type: ADME, organism-based; conditions: human, in vivo, read-out: Css
[7] = Ratio of drug concentration at steady state in human in benign prostate hyperplasia patient at 5 mg, po QD after 24 hrs to IC50 for human BSEP overexpressed in Sf9 insect cells; type: ADME, organism-based; conditions: in vivo
[8] = Ratio of drug concentration at steady state in human in alopecia patient at 1 mg, po QD after 24 hrs to IC50 for human MRP4 overexpressed in Sf9 insect cells; type: ADME, organism-based; conditions: in vivo
[9] = target: ATP-binding cassette sub-family C member 2 (Homo sapiens, UniProt Q92887); experiment: Inhibition of human MRP2 overexpressed in Sf9 cell membrane vesicles assessed as uptake of [3H]-estradiol-17beta-D-glucuronide in presence of ATP and GSH measured after 20 mins by membrane vesicle transport assay
[10] = target: ATP-binding cassette sub-family C member 3 (Homo sapiens, UniProt O15438); experiment: Inhibition of human MRP3 overexpressed in Sf9 insect cell membrane vesicles assessed as uptake of [3H]-estradiol-17beta-D-glucuronide in presence of ATP and GSH measured after 10 mins by membrane vesicle transport assay; type: ADME, cell-based
[11] = Ratio of drug concentration at steady state in human in alopecia patient at 1 mg, po QD after 24 hrs to IC50 for human BSEP overexpressed in Sf9 insect cells; type: ADME, organism-based; conditions: in vivo
[12] = Ratio of drug concentration at steady state in human at 15 mg, po QD for 14 days after 24 hrs to IC50 for human BSEP overexpressed in Sf9 insect cells; type: ADME, organism-based; conditions: in vivo
[13] = AUC in human at 15 mg, po QD for 14 days after 24 hrs; type: ADME, organism-based; parameters: dose 15 mg, time < 24 hr, route oral; conditions: in vivo
[14] = Drug concentration at steady state in human at 15 mg, po QD for 14 days after 24 hrs; type: ADME, organism-based; conditions: in vivo, read-out: Css
Bile salt export pump = Bile salt export pump (Homo sapiens, UniProt O95342); experiment: Inhibition of human BSEP overexpressed in Sf9 cell membrane vesicles assessed as uptake of [3H]-taurocholate in presence of ATP measured after 15 to 20 mins by membrane vesicle transport assay; type: ADME, cell-based
clinical = conditions: human, in vivo, po
Description: Drug concentration at steady state in human at 10 to 80 mg, po QD after 24 hrs

[15] = AUC in human at 10 to 80 mg, po QD after 24 hrs; type: ADME, organism-based; conditions: in vivo
[16] = AUC in human at 1 to 16 mg or 4 to 8 mg, po QD extended-release tablets after 24 hrs; type: ADME, organism-based; conditions: in vivo
Homo sapiens = experiment: Drug concentration at steady state in human at 1 to 16 mg or 4 to 8 mg, po QD extended-release tablets after 24 hrs; type: ADME, organism-based; conditions: in vivo
[17] = Ratio of drug concentration at steady state in human at 1 to 16 mg or 4 to 8 mg, po QD extended-release tablets after 24 hrs to IC50 for human MRP4 overexpressed in Sf9 insect cells; type: ADME, organism-based; conditions: in vivo
[18] = Ratio of drug concentration at steady state in human at 1 to 16 mg or 4 to 8 mg, po QD extended-release tablets after 24 hrs to IC50 for human BSEP overexpressed in Sf9 insect cells; type: ADME, organism-based; conditions: in vivo
[19] = AUC in human at 20 to 80 mg, po QD after 24 hrs; type: ADME, organism-based; conditions: in vivo
[20] = Ratio of drug concentration at steady state in human at 20 to 80 mg, po QD after 24 hrs to IC50 for human MRP3 overexpressed in Sf9 insect cells; type: ADME, organism-based; conditions: in vivo
[21] = Ratio of drug concentration at steady state in human at 20 to 80 mg, po QD after 24 hrs to IC50 for human BSEP overexpressed in Sf9 insect cells; type: ADME, organism-based; conditions: in vivo
[22] = Ratio of drug concentration at steady state in human at 20 to 80 mg, po QD after 24 hrs to IC50 for human MRP4 overexpressed in Sf9 insect cells; type: ADME, organism-based; conditions: in vivo
[23] = Drug concentration at steady state in human at 20 to 80 mg, po QD after 24 hrs; type: ADME, organism-based; conditions: in vivo, read-out: Css

Chain of ATP-binding cassette sub-family C member 3 (O15438 whole entry): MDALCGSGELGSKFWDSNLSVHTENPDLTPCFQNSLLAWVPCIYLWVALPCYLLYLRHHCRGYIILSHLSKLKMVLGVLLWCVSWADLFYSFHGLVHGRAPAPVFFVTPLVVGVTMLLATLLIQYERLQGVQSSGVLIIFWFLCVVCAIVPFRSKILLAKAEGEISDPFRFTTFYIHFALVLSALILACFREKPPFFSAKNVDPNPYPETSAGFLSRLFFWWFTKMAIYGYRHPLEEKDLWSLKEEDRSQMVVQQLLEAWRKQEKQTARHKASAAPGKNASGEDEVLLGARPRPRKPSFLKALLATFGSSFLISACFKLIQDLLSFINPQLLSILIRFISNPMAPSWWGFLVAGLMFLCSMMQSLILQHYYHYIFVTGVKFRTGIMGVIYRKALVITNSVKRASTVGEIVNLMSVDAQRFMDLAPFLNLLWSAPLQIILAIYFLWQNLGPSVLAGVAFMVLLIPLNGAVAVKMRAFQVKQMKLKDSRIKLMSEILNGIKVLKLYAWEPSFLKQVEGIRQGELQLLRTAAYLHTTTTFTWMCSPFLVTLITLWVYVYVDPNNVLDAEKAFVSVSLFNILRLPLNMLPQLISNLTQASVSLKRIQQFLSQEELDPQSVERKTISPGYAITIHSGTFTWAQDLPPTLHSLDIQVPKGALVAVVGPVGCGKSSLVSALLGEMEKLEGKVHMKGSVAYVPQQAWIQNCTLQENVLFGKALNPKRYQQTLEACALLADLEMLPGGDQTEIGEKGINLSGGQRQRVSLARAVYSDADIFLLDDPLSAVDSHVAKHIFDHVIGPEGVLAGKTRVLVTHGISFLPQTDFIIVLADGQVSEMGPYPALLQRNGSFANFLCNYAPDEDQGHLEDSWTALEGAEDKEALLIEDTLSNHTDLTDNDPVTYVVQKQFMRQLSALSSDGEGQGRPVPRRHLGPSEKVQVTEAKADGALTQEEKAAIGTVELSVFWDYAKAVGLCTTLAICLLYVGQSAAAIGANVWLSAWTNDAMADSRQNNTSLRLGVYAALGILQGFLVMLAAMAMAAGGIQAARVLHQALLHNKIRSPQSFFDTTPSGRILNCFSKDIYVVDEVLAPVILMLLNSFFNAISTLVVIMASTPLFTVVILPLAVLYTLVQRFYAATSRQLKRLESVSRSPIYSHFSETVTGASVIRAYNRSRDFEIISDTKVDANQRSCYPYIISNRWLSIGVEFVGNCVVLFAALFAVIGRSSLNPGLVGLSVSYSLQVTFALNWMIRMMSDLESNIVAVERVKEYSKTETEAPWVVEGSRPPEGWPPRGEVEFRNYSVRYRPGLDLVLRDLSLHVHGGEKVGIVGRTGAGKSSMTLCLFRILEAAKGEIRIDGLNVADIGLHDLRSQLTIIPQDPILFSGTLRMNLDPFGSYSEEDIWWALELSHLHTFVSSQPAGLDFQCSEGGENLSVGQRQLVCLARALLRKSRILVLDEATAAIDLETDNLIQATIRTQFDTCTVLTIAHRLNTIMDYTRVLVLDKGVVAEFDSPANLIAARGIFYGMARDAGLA
Chain of ATP-binding cassette sub-family C member 2 (Q92887 whole entry): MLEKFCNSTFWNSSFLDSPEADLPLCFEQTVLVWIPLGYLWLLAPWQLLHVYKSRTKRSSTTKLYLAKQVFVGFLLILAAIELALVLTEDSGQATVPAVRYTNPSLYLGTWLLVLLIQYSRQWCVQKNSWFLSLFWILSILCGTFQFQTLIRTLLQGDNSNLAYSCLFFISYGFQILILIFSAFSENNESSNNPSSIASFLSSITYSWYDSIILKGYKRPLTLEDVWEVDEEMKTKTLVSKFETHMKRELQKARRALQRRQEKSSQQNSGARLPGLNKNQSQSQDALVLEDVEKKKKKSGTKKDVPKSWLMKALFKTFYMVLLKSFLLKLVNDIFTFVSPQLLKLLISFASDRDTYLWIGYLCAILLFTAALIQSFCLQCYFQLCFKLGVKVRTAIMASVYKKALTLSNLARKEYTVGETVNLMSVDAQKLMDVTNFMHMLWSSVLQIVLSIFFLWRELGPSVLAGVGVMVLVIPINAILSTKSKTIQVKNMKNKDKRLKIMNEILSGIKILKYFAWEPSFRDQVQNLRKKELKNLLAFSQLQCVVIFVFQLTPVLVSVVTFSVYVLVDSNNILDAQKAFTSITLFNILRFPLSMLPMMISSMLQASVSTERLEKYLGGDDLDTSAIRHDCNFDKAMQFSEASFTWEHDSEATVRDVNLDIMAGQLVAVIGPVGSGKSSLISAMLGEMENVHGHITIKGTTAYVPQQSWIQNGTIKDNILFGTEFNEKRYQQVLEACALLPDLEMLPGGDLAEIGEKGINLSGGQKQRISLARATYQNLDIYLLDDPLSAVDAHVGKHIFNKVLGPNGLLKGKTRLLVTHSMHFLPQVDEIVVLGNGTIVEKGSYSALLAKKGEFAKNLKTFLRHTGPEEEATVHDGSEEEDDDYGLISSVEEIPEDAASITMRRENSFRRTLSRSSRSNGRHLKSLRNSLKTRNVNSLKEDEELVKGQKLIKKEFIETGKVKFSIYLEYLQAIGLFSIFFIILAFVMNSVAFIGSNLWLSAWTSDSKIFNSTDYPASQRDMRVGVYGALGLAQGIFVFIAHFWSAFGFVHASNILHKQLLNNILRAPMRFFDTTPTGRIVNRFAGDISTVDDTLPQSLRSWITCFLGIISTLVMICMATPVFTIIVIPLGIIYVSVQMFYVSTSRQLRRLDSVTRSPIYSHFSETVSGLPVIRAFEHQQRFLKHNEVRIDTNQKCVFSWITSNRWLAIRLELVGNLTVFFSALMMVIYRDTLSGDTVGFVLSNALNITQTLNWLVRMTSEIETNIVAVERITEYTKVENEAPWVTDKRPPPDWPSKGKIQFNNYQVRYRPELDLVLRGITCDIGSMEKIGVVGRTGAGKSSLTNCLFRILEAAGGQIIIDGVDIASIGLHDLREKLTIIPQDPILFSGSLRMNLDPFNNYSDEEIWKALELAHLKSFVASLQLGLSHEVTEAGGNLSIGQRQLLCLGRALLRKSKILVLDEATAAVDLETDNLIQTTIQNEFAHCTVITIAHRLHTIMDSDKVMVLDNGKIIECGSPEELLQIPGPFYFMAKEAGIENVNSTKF
Chain of Bile salt export pump (O95342 whole entry): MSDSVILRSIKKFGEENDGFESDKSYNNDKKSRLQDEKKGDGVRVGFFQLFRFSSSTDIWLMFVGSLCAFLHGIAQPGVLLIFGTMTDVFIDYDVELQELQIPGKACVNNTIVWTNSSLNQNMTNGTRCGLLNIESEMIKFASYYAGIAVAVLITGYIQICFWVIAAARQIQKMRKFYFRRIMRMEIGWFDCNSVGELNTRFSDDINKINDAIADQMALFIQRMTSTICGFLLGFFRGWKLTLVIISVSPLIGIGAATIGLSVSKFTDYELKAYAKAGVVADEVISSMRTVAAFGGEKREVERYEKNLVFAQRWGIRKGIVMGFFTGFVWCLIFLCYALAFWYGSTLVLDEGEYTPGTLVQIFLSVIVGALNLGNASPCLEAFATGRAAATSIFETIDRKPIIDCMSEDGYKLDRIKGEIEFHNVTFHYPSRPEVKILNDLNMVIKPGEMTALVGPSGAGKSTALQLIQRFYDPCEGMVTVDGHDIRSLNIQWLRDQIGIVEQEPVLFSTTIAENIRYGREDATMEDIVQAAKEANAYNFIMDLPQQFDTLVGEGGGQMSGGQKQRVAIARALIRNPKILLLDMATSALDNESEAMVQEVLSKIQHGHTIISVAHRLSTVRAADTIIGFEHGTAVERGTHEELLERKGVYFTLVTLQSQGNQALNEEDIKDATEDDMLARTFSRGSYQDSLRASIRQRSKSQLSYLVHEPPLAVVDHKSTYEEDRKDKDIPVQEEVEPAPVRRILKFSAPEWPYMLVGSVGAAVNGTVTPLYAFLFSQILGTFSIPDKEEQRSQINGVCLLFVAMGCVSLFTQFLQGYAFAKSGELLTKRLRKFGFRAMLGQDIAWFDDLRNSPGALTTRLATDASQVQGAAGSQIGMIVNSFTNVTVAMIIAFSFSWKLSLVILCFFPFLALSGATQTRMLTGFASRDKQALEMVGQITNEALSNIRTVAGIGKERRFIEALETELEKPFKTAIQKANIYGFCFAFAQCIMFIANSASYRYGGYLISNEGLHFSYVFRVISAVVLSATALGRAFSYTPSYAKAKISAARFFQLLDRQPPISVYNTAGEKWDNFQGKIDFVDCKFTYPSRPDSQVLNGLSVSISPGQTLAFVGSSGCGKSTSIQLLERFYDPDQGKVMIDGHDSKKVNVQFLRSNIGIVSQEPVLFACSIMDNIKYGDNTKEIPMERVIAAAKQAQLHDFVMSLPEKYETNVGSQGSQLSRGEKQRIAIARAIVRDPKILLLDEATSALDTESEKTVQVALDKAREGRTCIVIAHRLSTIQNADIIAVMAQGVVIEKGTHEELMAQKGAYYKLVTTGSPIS

- AUC at 24 h [1]: 0.993 µM·h
- IC50 [2]: 51 µM
- Ratio [3]: 0.001
- AUC at 24 h [4]: 0.993 µM·h
- concentration at 24 h [5]: 41 nM
- concentration at 24 h [6]: 41 nM
- Ratio [8]: 0.001
- IC50 [9]: > 133 µM
- IC50 [10]: > 133 µM
SMILES: CC(C)(C)NC(=O)[C@H]1CC[C@H]2[C@@H]3CC[C@H]4NC(=O)C=C[C@]4(C)[C@H]3CC[C@]12C [FINASTERIDE]
- Ratio [7]: 0.00147
- Ratio [11]: 0.00147

- IC50 [2]: > 133 µM
- IC50 [9]: > 133 µM
- IC50 [10]: > 133 µM
- AUC at 24 h [13]: 1.71 µM·h
- concentration at 24 h [14]: 71 nM
SMILES: COc1cc(NC(C)CCCN)c2ncccc2c1 (centres undefined) [PRIMAQUINE]
- Ratio [12]: 0.002

- concentration at 24 h (clinical): 10 nM
- IC50 [2]: > 133 µM
- IC50 [9]: > 133 µM
- IC50 [10]: > 133 µM
- AUC at 24 h [15]: 0.238 µM·h
SMILES: CC[C@H](C)C(=O)O[C@H]1C[C@@H](C)C=C2C=C[C@H](C)[C@H](CC[C@@H]3C[C@@H](O)CC(=O)O3)[C@H]21 [LOVASTATIN]
- IC50 (Bile salt export pump): 19.3 µM

- IC50 [2]: 8 µM
- AUC at 24 h [16]: 1.64 µM·h
- IC50 [9]: > 133 µM
- Css (Homo sapiens): 68 nM
- IC50 [10]: > 133 µM
- Ratio [17]: 0.009
SMILES: COc1cc2nc(N3CCN(C(=O)C4COc5ccccc5O4)CC3)nc(N)c2cc1OC.CS(=O)(=O)O (centres undefined) [DOXAZOSIN MESYLATE]
- IC50 (Bile salt export pump): 45 µM
- Ratio [18]: 0.002

SMILES: CCCc1nc2c(C)cc(-c3nc4ccccc4n3C)cc2n1Cc1ccc(-c2ccccc2C(=O)O)cc1
- IC50 [2]: 36 µM
- AUC at 24 h [19]: 3.57 µM·h
- Ratio [20]: 0.002
- IC50 [9]: > 133 µM
- Ratio [21]: 0.009
- IC50 [10]: 60 µM
- Ratio [22]: 0.004
- concentration at 24 h [23]: 149 nM
